Measurements reported in PubChem BioAssay (NCI).
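48-hour exposure; five concentrations; linearly interpolated endpoints. GI50: concentration for 50% inhibition of growth. TGI marks complete inhibition of growth.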

Legend:
Test in all cases: NCI anticancer screen, dose series, 48 h
OVCAR-4 ovarian = system: OVCAR-4 ovarian
OVCAR-8 ovarian = system: OVCAR-8 ovarian
UACC-62 melanoma = system: UACC-62 melanoma
SW-620 colon = system: SW-620 colon
NCI-H460 lung = system: NCI-H460 lung
HCC-2998 colon = system: HCC-2998 colon
UO-31 renal = system: UO-31 renal
SN12C renal = system: SN12C renal
A498 renal = system: A498 renal
HOP-92 NSCLC = system: HOP-92 NSCLC

Row | Structure (SMILES) | TGI (OVCAR-4 ovarian) [µM] | TGI (OVCAR-8 ovarian) [µM] | TGI (UACC-62 melanoma) [µM] | TGI (SW-620 colon) [µM] | TGI (NCI-H460 lung) [µM] | TGI (HCC-2998 colon) [µM] | TGI (UO-31 renal) [µM] | TGI (SN12C renal) [µM] | TGI (A498 renal) [µM] | TGI (HOP-92 NSCLC) [µM] | GI50 (OVCAR-4 ovarian) [µM] | GI50 (OVCAR-8 ovarian) [µM] | GI50 (UACC-62 melanoma) [µM] | GI50 (SW-620 colon) [µM] | GI50 (NCI-H460 lung) [µM] | GI50 (HCC-2998 colon) [µM] | GI50 (UO-31 renal) [µM] | GI50 (SN12C renal) [µM] | GI50 (HOP-92 NSCLC) [µM] | GI50 (A498 renal) [µM]
1 | O=C(O)CC12C3C4C5C3C1C5C42 (configuration not stated) | > 100 | > 100 | > 100 | > 100 | > 100 | > 100 | > 100 | > 100 | > 100 |  |  |  |  |  |  |  |  |  |  | 
2 | Cc1ccc(NC(=O)CCC/C(CC(=O)c2ccc(Br)cc2)=N/NC(=O)CC#N)cc1 | > 100 | > 100 | > 100 | > 100 | > 100 | > 100 | > 100 | > 100 |  | > 100 |  |  |  |  |  |  |  |  |  | 
3 | COC1OC(C)C(O)CC1OS(=O)(=O)c1ccc(C)cc1 (configuration not stated) | > 100 | > 100 | > 100 | > 100 | > 100 |  | > 100 | > 100 | > 100 | > 100 |  |  |  |  |  |  |  |  |  | 
4 | O=C(Nc1ccc(F)cc1)C(=O)C(C1OC(=O)c2ccccc21)[N+](=O)[O-] (configuration not stated) | > 100 | > 100 | > 100 | > 100 | > 100 | > 100 | > 100 |  | > 100 | > 100 |  |  |  |  |  |  |  |  |  | 
5 | COC(=O)C(=O)C(C#N)c1ccc(CC#N)cc1 (configuration not stated) |  |  | > 100 | > 100 |  |  | > 100 | > 100 |  | > 100 |  |  |  |  |  |  |  |  |  | 
6 | COc1cccc(-c2nc3sccn3c2-c2ccnc(NCCNS(=O)(=O)c3ccccc3)c2)c1 | > 100 | > 100 | 3.49 | > 100 | > 100 | > 100 | 6.65 | > 100 |  | 33.6 | 2.09 | 2.13 | 1.29 | 4.3 | 3.47 | 6.23 | 0.59 | 2.91 | 0.596 | 
7 | Cc1nc2cc(N)c(F)cc2[nH]1 | > 100 | > 100 | > 100 | > 100 | > 100 |  | > 100 | > 100 | > 100 | > 100 |  |  |  |  |  |  |  |  |  | 
8 | O=c1ccnc2c1ccc1[nH]cccc12 | > 100 | > 100 | > 100 | > 100 | > 100 | > 100 | > 100 | > 100 | > 100 |  |  |  |  |  |  |  |  |  |  | 
9 | NC(=N\N=C/c1cccc([N+](=O)[O-])c1)/C(N)=N\N=C/c1cccc([N+](=O)[O-])c1 |  | > 100 | > 100 | > 100 |  | > 100 | > 100 | > 100 | > 100 | > 100 |  | > 100 | > 100 | > 100 |  | > 100 | > 100 | > 100 | > 100 | > 100
10 | NC(=S)N/N=C(\C(=O)Nc1cccc([N+](=O)[O-])c1)c1nc2ccc([N+](=O)[O-])cc2[nH]c1=O | > 100 | > 100 | > 100 | > 100 | > 100 | > 100 | > 100 |  | > 100 | > 100 |  |  |  |  |  |  |  |  |  | 
